Experimental data published in patent publication US20150050235A1, “COMPOSITION FOR ATTRACTING MALE BLUEBERRY SPANWORM MOTH” (Her Majesty the Queen in Right of Canada, as represented by …, priority 2013, published 2015).

Legend:
[1] = test system: male I. argillacearia moths; assay: Field experiment no. 1: captures of male moths in baited Delta traps; format: in vivo, Itame argillacearia; conditions: 50 μg per constituent, rubber septa in Delta traps, n=10
Protocol: Field Experiments. Two field experiments were conducted during the moth flight season in 2012. Traps were deployed in vegetative lowbush blueberry fields located in Farmington (field experiment no. 1) and Debert (field experiment no. 2), Nova Scotia. Lowbush blueberries are typically produced on a biennial cycle. After harvest, plants are pruned and enter a year-long vegetative phase.
In both field experiments, traps were arranged in a randomized complete block design with ten replicates in the first experiment and six replicates in the second field experiment. Counts of male moths in traps were done twice per week. Trap data were log10 (x+1) transformed to satisfy assumptions of normality and equal variance and were analyzed by ANOVA using Proc Mixed (SAS, 2001). Where significant differences were detected, Fisher's least significant difference (LSD) was used for multiple mean comparisons among treatments.
The first experiment attempted to clarify: (1) whether enantiomers of the tested epoxide compound differed in the ability to attract male I. argillacearia moths; and (2) whether a mixture of the tested epoxide and triene compounds was more attractive to male moths than each constituent alone.
Rubber septa (Wheaton, N.J., USA) loaded with treatments were placed within Delta® traps (Contech, Delta, British Columbia) with sticky inserts to capture moths. Traps were placed approximately 20 m apart (Cantelo et al., 1982; Hillier, 2001; Hillier et al., 2002), and suspended from iron stakes just above the blueberry canopy. The experiment had seven treatments.
Virgin female moths were held in 25 ml plastic Solo™ cups (TRA Cash and Carry, Truro, NS, Canada) perforated with approximately 20 5-mm holes. Traps were in the field from 9-26 Jul. 2012 and were emptied or replaced twice per week during this period.

Itame brunneata = conditions: without (Z,Z,Z)-3,6,9-17:H in the mixture; cited from earlier work

SMILES | captures of male moths in traps (in words) [1] | capture of moths (Itame brunneata)
CCCCCCC/C=C\C/C=C\C[C@H]1O[C@H]1CC [3S,4R-epoxy-(Z,Z)-6,9-17:H, Z,Z-(3S,4R)-3,4-epoxy-6,9-heptadecadiene] | lack of captured moths | 
CC/C=C\C/C=C\C/C=C\CCCCCCC [(Z,Z,Z)-3,6,9-17:H, Z,Z,Z-3,6,9-heptadecatriene] | Very few moths were recovered | 
CCCCCCC/C=C\C/C=C\C[C@@H]1O[C@@H]1CC (relative stereo) [3R,4S-epoxy-(Z,Z)-6,9-17:H, Z,Z-(3R,4S)-cis-3,4-epoxy-6,9-heptadecadiene] | a significant number of moths were found | captured
